Assay results reported in patent publication US9499550B2 (BRISTOL-MYERS SQUIBB COMPANY, priority 2012, dated 2016).
Like-named read-outs stand apart in the source and are kept apart here.

Legend:
[1] = tested on: HCV genotype 1b (Con1) replicon in HUH-7 cells; assay: HCV replicon luciferase reporter assay, genotype 1b; format: cell-based; details: Hepatitis C virus, Huh-7, 72 h, 3 days incubation
In short: (§1)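 Replicon inhibition for both genotypes was measured as Renilla luciferase signal (EnduRen, 7.5 μM final, 2 h) after 3-day, 37° C exposure of replicon-bearing HUH-7 cells in 4% FCS DMEM, 0.5% DMSO. The 1b construct carries S1179I; the 1a H77 construct carries P1496L and S2204I. Twenty-point, 3-fold dilutions were fitted four-parametrically for EC50, and CC50 was taken from multiplexed Cell Titer-Blue.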

[2] = tested on: HCV genotype 1a (H77 strain) replicon in HUH-7 cells; assay: HCV replicon luciferase reporter assay, genotype 1a; format: cell-based; details: Hepatitis C virus, Huh-7, 72 h, 3 days incubation
In short: as §1

[3] = HCV genotype 1b replicon luciferase assay, range class, read-out: LE_1b (EC50, range)
[4] = HCV genotype 1a replicon luciferase assay, range class, read-out: LE_1a (EC50, range)
[5] = GETYPE1B, HCV genotype 1b replicon luciferase, read-out: LE_1b (EC50, range)
[6] = GETYPE1A, HCV genotype 1a replicon luciferase, read-out: LE_1a (EC50, range)
[7] = HCV genotype 1b replicon luciferase, read-out: LE_1b (EC50, range)
[8] = HCV genotype 1a replicon luciferase, read-out: LE_1a (EC50, range)

Compound | EC50 [1, 3] [nM] | EC50 [2, 4] [nM] | EC50 [1, 7] [nM] | EC50 [2, 8] [nM] | other results
COc1ccc2c(O[C@@H]3C[C@H]4C(=O)N[C@]5(C(=O)NS(=O)(=O)C6CC6)C[C@H]5/C=C\CC[C@H](C)C[C@@H](C)[C@H](NC(=O)OC(C)(C)C)C(=O)N4C3)nccc2c1 [Compound 1067, tert-butyl ((2R,6S,7R,9S,13aS,14aR,16aS,Z)-14a-((cyclopropylsulfonyl)carbamoyl)-2-((6-methoxyisoquinolin-1-yl)oxy)-7,9-dimethyl-5,16-dioxo-1,2,3,5,6,7,8,9,10,11,13a,14,14a,15,16,16a-hexadecahydrocyclopropa[e]pyrrolo[1,2-a][1,4]diazacyclopentadecin-6-yl)carbamate] | < 5.46 | < 5.46 |  |  | 
COc1cc2ccnc(O[C@@H]3C[C@H]4C(=O)N[C@]5(C(=O)NS(=O)(=O)C6(CF)CC6)C[C@H]5/C=C\CC[C@H](C)C[C@@H](C)[C@H](NC(=O)OC5(C(F)(F)F)CCCCO5)C(=O)N4C3)c2cc1F (stereo partly drawn) [Compound 1191] |  |  |  |  | EC50 [1, 5]: 5.01 to 35 nM; EC50 [2, 6]: 5.01 to 35 nM
COc1ccc2c(O[C@@H]3C[C@H]4C(=O)N[C@]5(C(=O)NS(=O)(=O)C6CC6)C[C@H]5/C=C\CC[C@H](C)C[C@@H](C)[C@H](NC(=O)OC(C)(C)C)C(=O)N4C3)nc(-c3ccc(OC)c(F)c3)cc2c1 [Compound 3049, tert-butyl ((2R,6S,7R,9S,13aS,14aR,16aS,Z)-14a-((cyclopropylsulfonyl)carbamoyl)-2-((3-(3-fluoro-4-methoxyphenyl)-6-methoxyisoquinolin-1-yl)oxy)-7,9-dimethyl-5,16-dioxo-1,2,3,5,6,7,8,9,10,11,13a,14,14a,15,16,16a-hexadecahydrocyclopropa[e]pyrrolo[1,2-a][1,4]diazacyclopentadecin-6-yl)carbamate] | < 5.46 | < 5.46 |  |  | 
CCCOc1cc2c(Cl)cccc2c(O[C@@H]2C[C@H]3C(=O)N[C@]4(C(=O)NS(=O)(=O)C5CC5)C[C@H]4/C=C\CC[C@H](C)C[C@@H](C)[C@H](NC(=O)OC(C)(C)C)C(=O)N3C2)n1 [Compound 1069, tert-butyl ((2R,6S,7R,9S,13aS,14aR,16aS,Z)-2-((5-chloro-3-propoxyisoquinolin-1-yl)oxy)-14a-((cyclopropylsulfonyl)carbamoyl)-7,9-dimethyl-5,16-dioxo-1,2,3,5,6,7,8,9,10,11,13a,14,14a,15,16,16a-hexadecahydrocyclopropa[e]pyrrolo[1,2-a][1,4]diazacyclopentadecin-6-yl)carbamate] | < 5.46 | < 5.46 |  |  | 
COc1cc(F)cc2c(O[C@@H]3C[C@H]4C(=O)N[C@]5(C(=O)NS(=O)(=O)C6CC6)C[C@H]5/C=C\CC[C@@H](C)C[C@@H](C)[C@H](NC(=O)O[C@H](C)C(F)(F)F)C(=O)N4C3)nccc12 [Compound 3170, (R)-1,1,1-trifluoropropan-2-yl ((2R,6S,7R,9R,13aS,14aR,16aS,Z)-14a-((cyclopropylsulfonyl)carbamoyl)-2-((7-fluoro-5-methoxyisoquinolin-1-yl)oxy)-7,9-dimethyl-5,16-dioxo-1,2,3,5,6,7,8,9,10,11,13a,14,14a,15,16,16a-hexadecahydrocyclopropa[e]pyrrolo[1,2-a][1,4]diazacyclopentadecin-6-yl)carbamate] | < 5.46 | < 5.46 |  |  | 
CCOc1ccc2nc(Cl)c(O[C@@H]3C[C@H]4C(=O)N[C@]5(C(=O)NS(=O)(=O)C6(CF)CC6)C[C@H]5/C=C\CC[C@@H](C)C[C@@H](C)[C@H](NC(=O)OC(C)(C)C(F)(F)F)C(=O)N4C3)c(Cl)c2c1 [Compound 4292] |  |  |  |  | EC50 [1, 5]: 5.01 to 35 nM; EC50 [2, 6]: 5.01 to 35 nM
CC(C)n1nc(O[C@@H]2C[C@H]3C(=O)N[C@]4(C(=O)NS(=O)(=O)C5(C)CC5)C[C@H]4/C=C\CC[C@@H](C)C[C@@H](C)[C@H](NC(=O)OC(C)(C)C(F)(F)F)C(=O)N3C2)c2ccccc2c1=O [Compound 1012, 1,1,1-trifluoro-2-methylpropan-2-yl((2R,6S,7R,9R,13aS,14aR,16aS,Z)-2-((3-isopropyl-4-oxo-3,4-dihydrophthalazin-1-yl)oxy)-7,9-dimethyl-14a-(((1-methylcyclopropyl)sulfonyl)carbamoyl)-5,16-dioxo-1,2,3,5,6,7,8,9,10,11,13a,14,14a,15,16,16a-hexadecahydrocyclopropa[e]pyrrolo[1,2-a][1,4]diazacyclopentadecin-6-yl)carbamate] | 4.82 to 103 | 4.82 to 103 |  |  | 
COc1cc(F)cc2c(O[C@@H]3C[C@H]4C(=O)N[C@]5(C(=O)NS(=O)(=O)C6(CF)CC6)C[C@H]5/C=C\CC[C@@H](C)C[C@@H](C)[C@H](NC(=O)O[C@H](C)C(F)(F)F)C(=O)N4C3)nccc12 [Compound 3178, (R)-1,1,1-trifluoropropan-2-yl ((2R,6S,7R,9R,13aS,14aR,16aS,Z)-2-((7-fluoro-5-methoxyisoquinolin-1-yl)oxy)-14a-(((1-(fluoromethyl)cyclopropyl)sulfonyl)carbamoyl)-7,9-dimethyl-5,16-dioxo-1,2,3,5,6,7,8,9,10,11,13a,14,14a,15,16,16a-hexadecahydrocyclopropa[e]pyrrolo[1,2-a][1,4]diazacyclopentadecin-6-yl)carbamate] | < 5.46 | < 5.46 |  |  | EC50 ([1]; HCV genotype 1b replicon luciferase assay, read-out: LE_1b (EC50)): 0.61 nM; EC50 ([2]; HCV genotype 1a replicon luciferase assay, read-out: LE_1a (EC50)): 3.16 nM
COc1ccc2c(O[C@@H]3C[C@H]4C(=O)N[C@]5(C(=O)NS(=O)(=O)C6(C)CC6)C[C@H]5/C=C\CC[C@@H](C)C[C@@H](C)[C@H](NC(=O)OC(C)(C)C(F)(F)F)C(=O)N4C3)ncc(N3CCN(C)CC3)c2c1 [Compound 4013] |  |  |  |  | EC50 [1, 5]: < 5.46 nM; EC50 [2, 6]: < 5.46 nM
C[C@@H]1CC/C=C\[C@@H]2C[C@@]2(C(=O)NS(=O)(=O)C2(CF)CC2)NC(=O)[C@@H]2C[C@@H](Oc3nccc4c5c(ccc34)CCCO5)CN2C(=O)[C@@H](NC(=O)OC(C)(C)C(F)(F)F)[C@H](C)C1 [Compound 6066, 1,1,1-trifluoro-2-methylpropan-2-yl((2R,6S,7R,9R,13aS,14aR,16aS,Z)-2-((3,4-dihydro-2H-pyrano[2,3-f]isoquinolin-7-yl)oxy)-14a-(((1-(fluoromethyl)cyclopropyl)sulfonyl)carbamoyl)-7,9-dimethyl-5,16-dioxo-1,2,3,5,6,7,8,9,10,11,13a,14,14a,15,16,16a-hexadecahydrocyclopropa[e]pyrrolo[1,2-a][1,4]diazacyclopentadecin-6-yl)carbamate] |  |  | 1.01 to 5 | 1.01 to 5 | 
C[C@@H]1CC/C=C\[C@@H]2C[C@@]2(C(=O)NS(=O)(=O)C2CC2)NC(=O)[C@@H]2C[C@@H](Oc3nccc4c5c(ccc34)N(C)CCO5)CN2C(=O)[C@@H](NC(=O)c2ccc(N(C)C)cc2)[C@H](C)C1 [Compound 5290, (2R,6S,7R,9R,13aS,14aR,16aS,Z)—N-(cyclopropylsulfonyl)-6-(4-(dimethylamino)benzamido)-7,9-dimethyl-2-((4-methyl-3,4-dihydro-2H-[1,4]oxazino[2,3-f]isoquinolin-7-yl)oxy)-5,16-dioxo-1,2,3,5,6,7,8,9,10,11,13a,14,14a,15,16,16a-hexadecahydrocyclopropa[e]pyrrolo[1,2-a][1,4]diazacyclopentadecine-14a-carboxamide] |  |  | < 5.46 | < 5.46 | EC50 ([1]; HCV genotype 1b replicon luciferase, read-out: LE_1b (EC50)): 0.64 nM; EC50 ([2]; HCV genotype 1a replicon luciferase, read-out: LE_1a (EC50)): 1.25 nM
CCOc1ccc2c(O[C@@H]3C[C@H]4C(=O)N[C@]5(C(=O)NS(=O)(=O)C6(CF)CC6)C[C@H]5/C=C\CC[C@@H](C)C[C@@H](C)[C@H](NC(=O)OC(C)(C)C(F)(F)F)C(=O)N4C3)nccc2c1 [Compound 5363, 1,1,1-trifluoro-2-methylpropan-2-yl((2R,6S,7R,9R,13aS,14aR,16aS,Z)-2-((6-ethoxyisoquinolin-1-yl)oxy)-14a-(((1-(fluoromethyl)cyclopropyl)sulfonyl)carbamoyl)-7,9-dimethyl-5,16-dioxo-1,2,3,5,6,7,8,9,10,11,13a,14,14a,15,16,16a-hexadecahydrocyclopropa[e]pyrrolo[1,2-a][1,4]diazacyclopentadecin-6-yl)carbamate] |  |  | 0.51 to 1 | 1.01 to 5 | 
COc1cnc2ccc(O[C@@H]3C[C@H]4C(=O)N[C@]5(C(=O)NS(=O)(=O)C6(C)CC6)C[C@H]5/C=C\CC[C@@H](C)C[C@@H](C)[C@H](NC(=O)OC(C)(C)C)C(=O)N4C3)cc2n1 [Compound 4310, tert-butyl ((2R,6S,7R,9R,13aS,14aR,16aS,Z)-2-((3-methoxyquinoxalin-6-yl)oxy)-7,9-dimethyl-14a-(((1-methylcyclopropyl)sulfonyl)carbamoyl)-5,16-dioxo-1,2,3,5,6,7,8,9,10,11,13a,14,14a,15,16,16a-hexadecahydrocyclopropa[e]pyrrolo[1,2-a][1,4]diazacyclopentadecin-6-yl)carbamate] |  |  | 1.01 to 5 | 0.51 to 1 | 
